Laboratory results from article PMC10138577, “Prenylated Flavonoids with Selective Toxicity against Human Cancers” (International Journal of Molecular Sciences, 2023).

Tests used:
Type in all cases: cell-based
[1] = tested on: MV-4-11 human myelomonocytic leukemia cells; experiment: In vitro antiproliferative assay (MTT), MV-4-11; conditions: for IC50: Homo sapiens, MV4-11, MV-4-11, 72 h exposure, MTT, mean ± SD; for Calculated selectivity index SIB: IC50 BALB/3T3/IC50 MV-4-11; for Calculated selectivity index SIA: IC50 HLMEC/IC50 MV-4-11
Description: (§1) The following established in vitro cell lines were applied: human breast adenocarcinoma (MCF-7 and SK-BR-3), human breast ductal carcinoma (T47D), human prostate adenocarcinoma (PC-3), human prostate carcinoma (Du145), human colorectal adenocarcinoma (HT-29 and LoVo), doxorubicin-resistant human colorectal adenocarcinoma (LoVo/Dx), human myelomonocytic leukemia (MV-4-11), human lung adenocarcinoma (A549), normal murine embryonic fibroblasts (BALB/3T3) and human lung microvascular endothelial (HLMEC). All the cell lines were obtained from the American Type Culture Collection (Rockville, MD, USA) except for LoVo and LoVo/DX, which were received from the Technical University of Gdańsk, Poland, courtesy of Prof. E. Borowski. All the cell lines were maintained in the Institute of Immunology and Experimental Therapy, Wroclaw, Poland. The cells were cultured in the following media: DMEM medium (BALB/3T3), Eagle medium (MCF-7, SK-BR-3, Du145), RPMI medium (HLMEC, MV-4-11) or RPMI 1640 + Opti-MEM (1:1) medium (A549, T47D, LoVo, LoVo/Dx, PC-3, HT-29). The DMEM medium was supplemented with 2 mM L-glutamine and 10% fetal bovine serum. The Eagle medium was supplemented with 4 mM L-glutamine, 10% fetal bovine serum, 1 mM sodium pyruvate for Du145 cells or 2 mM L-glutamine, 1% amino acids and 0.8 mg L^−1 of insulin for MCF-7 and SK-BR-3. The RPMI medium was supplemented with 2 mM L-glutamine, 1 mM sodium pyruvate and 10% fetal bovine serum. The RPMI 1640 + Opti-MEM (1:1) medium was supplemented with 2 mM L-glutamine, 5% fetal bovine serum (PC-3, A549) and 0.8 mg L^−1 insulin (T47D) or 1 mM sodium pyruvate (HT-29, LoVo, LoVoDx) and 0.1 ug/mL doxorubicin (LoVo/Dx). The media contained antibiotics: 100 µg mL^−1 streptomycin and 100 U mL^−1 penicillin. All the cell lines were incubated at 37 °C in a humid atmosphere saturated with 5% CO2.
The details of this technique were described by Antoszczak et al.. The proliferation inhibition of human myelomonocytic leukemia (MV-4-11) by the tested compounds was measured using the MTT assay. Thus, 20 µL of 3-(4,5-dimethylthiazol-2-yl)-2,5-diphenyl tetrazolium bromide solution was added to each well. Then, the plates were incubated for 4 h in a cell incubator to allow the cells to metabolize the yellow MTT to blue formazan. Next, 80 µL of lysing mixture (consisting of 67.5 g sodium dodecyl sulfate, 225 mL dimethylformamide and 275 mL distilled water) was added to each well. The plates were incubated for 24 h for the formazan crystals to be released from the cells and dissolved, and then the absorbance of each well was read on a 96-well microtiter plate reader (Multiskan FC photometer (Thermo Scientific)) at a 570 nm wavelength.
(§2) Twenty-four hours before incubation with the tested compounds, the cells were seeded in 96-well plates (Sarstedt, Nümbrecht, Germany) at a density of 10^4 cells per well (10^3 cells per well for HLMEC) in 100 µL of culture medium. The analysis of the antiproliferative activity of the compounds was performed using sulforhothamine B (SRB) (for all the adherent cells) or 3-(4,5-dimethylthiazol-2-yl)-2,5-diphenyl tetrazolium bromide (MTT) (for the leukemia cells—MV-4-11). The details of this technique have been previously described by Skehan et al. and Antoszak et al.. An assay was performed after 72 h of exposure at varying concentrations (from 0.1 to 100 µg mL^−1) of xanthohumol (1), aurone (2) and the reference drug cisplatin. Each compound at each concentration was tested in a single experiment, which was repeated at least 3 times. […] The results were calculated as the IC50 (μM) (half maximal inhibitory concentration), i.e., the concentration of the tested agent that inhibits the proliferation of the cancer cell population by half. The IC50 values and the mean values ± SD calculated for each experiment separately using GraphPad Prism software (GraphPad Software 9.1.0, San Diego, CA, USA) are presented in Table S1 in the Supplementary Materials.

[2] = tested on: human lung microvascular endothelial (HLMEC) cells; experiment: In vitro cytotoxicity against normal cells (SRB), HLMEC; conditions: for IC50: Homo sapiens, HLMEC normal cell line, 72 h exposure, SRB, mean ± SD, read-out: Antiproliferative activity IC50
Description: as §1
The details of this technique were described by Skehan et al.. […] The unbound dye was removed by washing the plates five times with 1% acetic acid, whereas the stain bound to the cells was extracted with 150 µL of 10 mM unbuffered Tris base for determination of the optical density at a 540 nm wavelength in a computer-interfaced, 96-well microtiter plate reader–Multiskan FC photometer (Thermo Scientific, Waltham, MA, USA). The background optical density was measured in the wells filled with culture medium, without the cells.
Twenty-four hours before incubation with the tested compounds, the cells were seeded in 96-well plates (Sarstedt, Nümbrecht, Germany) at a density of 10^4 cells per well (10^3 cells per well for HLMEC) in 100 µL of culture medium. […] The results were calculated as the IC50 (μM) (half maximal inhibitory concentration), i.e., the concentration of the tested agent that inhibits the proliferation of the cancer cell population by half. […]

[3] = tested on: T47D human breast ductal carcinoma cells; experiment: In vitro antiproliferative assay (SRB), T47D; conditions: for IC50: Homo sapiens, T47D, 72 h exposure, SRB, mean ± SD; for Calculated selectivity index SIB: IC50 BALB/3T3/IC50 T47D; for Calculated selectivity index SIA: IC50 HLMEC/IC50 T47D
Description: as §1
(§3) The details of this technique were described by Skehan et al.. After 72 h of incubation with the tested compounds, the cells were fixed in situ by gently adding cold 50% trichloroacetic acid—TCA (50 µL per well). The plates were incubated at 4 °C for 1 h and then washed five times with tap water and air-dried. Next, the cellular material fixed with TCA was stained by adding 50 µL of 0.4% sulforhodamine B dissolved in 1% acetic acid to each well and incubating the wells for 30 min at room temperature. The unbound dye was removed by washing the plates five times with 1% acetic acid, whereas the stain bound to the cells was extracted with 150 µL of 10 mM unbuffered Tris base for determination of the optical density at a 540 nm wavelength in a computer-interfaced, 96-well microtiter plate reader–Multiskan FC photometer (Thermo Scientific, Waltham, MA, USA). The background optical density was measured in the wells filled with culture medium, without the cells.
as §2, with “The IC50 values and the mean values ± SD calculated for each experiment separately using GraphPad Prism software (GraphPad Software 9.1.0, San Diego, CA, USA) are presented in Table S1 in the Supplementary Materials.” left out

[4] = tested on: MCF-7 human breast adenocarcinoma cells; experiment: In vitro antiproliferative assay (SRB), MCF-7; conditions: for IC50: Homo sapiens, MCF7, MCF-7, 72 h exposure, SRB, mean ± SD; for Calculated selectivity index SIB: IC50 BALB/3T3/IC50 MCF-7; for Calculated selectivity index SIA: IC50 HLMEC/IC50 MCF-7
Description: as §1, §3
as §2, with “The IC50 values and the mean values ± SD calculated for each experiment separately using GraphPad Prism software (GraphPad Software 9.1.0, San Diego, CA, USA) are presented in Table S1 in the Supplementary Materials.” left out

SMILES | IC50 [1] [µM] | Calculated selectivity index SIB [1] | Calculated selectivity index SIA [1] | IC50 [2] [µM] | IC50 [3] [µM] | Calculated selectivity index SIB [3] | Calculated selectivity index SIA [3] | IC50 [4] [µM] | Calculated selectivity index SIB [4] | Calculated selectivity index SIA [4] | reduction of cytotoxic effect against normal cells relative to xanthohumol (1) ([2]; HLMEC, p < 0.05) [fold]
COc1cc(O)c(CC=C(C)C)c(O)c1C(=O)/C=C/c1ccc(O)cc1 [compound 1, 3′-[3″,3″-dimethylallyl]-2′,4′,4-trihydroxy-6′-methoxychalcone] | 8.07 ± 0.52 | 2.43 | 4.50 | 36.3 ± 6.7 | 8.27 ± 1.23 | 2.37 | 4.39 | 9.29 ± 0.27 | 2.11 | 3.91 | –
COc1cc(O)c(CC=C(C)C)c2c1C(=O)/C(=C/c1ccc(O)cc1)O2 [compound 2, (Z)-6,4′-dihydroxy-4-methoxy-7-prenylaurone] | 7.45 ± 0.87 | 5.97 | 7.09 | 52.8 ± 8.03 | 8.09 ± 2.21 | 5.50 | 6.53 | 9.28 ± 0.5 | 4.79 | 5.69 | 1.5
